According to patent US6436945B2, “Substituted O6-benzyl-8-aza-guanines” (The United States of America as represented by the of …, priority 1994, dated 2002):
Blank lines part the entries; values can stand above or below the molecule they belong to.

How the values were obtained:
[1] = target: T1, O^6-alkylguanine-DNA alkyltransferase (AGT) (Homo sapiens, UniProt P16455); test: AGT inactivation in HT29 cell-free extract; details: for AGT inactivating activity in HT29 cell-free extracts, in words: comparison
T1 sequence (P16455 1-207): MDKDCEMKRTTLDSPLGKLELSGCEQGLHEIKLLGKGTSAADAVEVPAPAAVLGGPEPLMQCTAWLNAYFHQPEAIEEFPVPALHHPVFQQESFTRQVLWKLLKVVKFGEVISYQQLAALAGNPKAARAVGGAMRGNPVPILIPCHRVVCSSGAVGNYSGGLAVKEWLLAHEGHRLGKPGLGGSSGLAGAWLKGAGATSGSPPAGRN
Procedure: (§1) The data represent the dose of compound required to produce 50% inactivation in cell-free extracts upon incubation for 30 min or in cells upon incubation for 4 hr.

[2] = target: T1, O^6-alkylguanine-DNA alkyltransferase (AGT); test: AGT inactivation in intact HT29 cells; details: for AGT inactivating activity in intact HT29 cells, in words: comparison; for ratio of ED50 values in cell-free extracts/intact cells: HT29
Procedure: as §1

[3] = tested on: DU-145 prostate cancer cells; test: Killing of DU-145 prostate cancer cells by BCNU combined with AGT inactivators (colony formation)
Procedure: (§2) Cells were treated for 2 h with AGT inactivator prior to exposure to BCNU.

HT-29 colon cancer cells = test: Killing of HT-29 colon cancer cells by BCNU combined with AGT inactivators (colony formation); details: for Colony Formation per 1000 cells: HT-29
Procedure: as §2

[4] = tested on: MCF-71 breast cancer cells; test: Killing of MCF-71 breast cancer cells by BCNU combined with AGT inactivators (colony formation)
Procedure: as §2

[5] = BCNU 40 μM, statement covers HT29, DU-145 and MCF-71 cells (Tables 3-5)

EC50 [1]: 28000 nM
EC50 [2]: 8000 nM
SMILES: Nc1ncnc(OCc2ccccc2)c1[N+](=O)[O-] [Compound 3a, 4-Amino-6-benzyloxy-5-nitropyrimidine]

EC50 [1]: 48000 nM
EC50 [2]: 12000 nM
SMILES: Fc1nc(OCc2ccccc2)c2nc[nH]c2n1 [Compound 4c, O^6-benzyl-2-fluorohypoxanthine]

EC50 [1]: 400 nM
EC50 [2]: 60 nM
AGT inactivating activity in intact HT29 cells, in words [2]: quite active in cells
SMILES: Cc1nc(N)nc(OCc2ccccc2)c1[N+](=O)[O-] [Compound 5b, 2-Amino-4-benzyloxy-6-methyl-5-nitropyrimidine]

EC50 [1]: 25000 nM
EC50 [2]: 45000 nM
SMILES: O=c1nc(OCc2ccccc2)c2[nH]c(=O)[nH]c2[nH]1 [Compound 4b, O^6-Benzyluric acid]

EC50 [1]: 15000 nM
EC50 [2]: 5000 nM
SMILES: Nc1cc(OCc2ccccc2)nc(N)n1 [Compound 3b, 2,4-diamino-6-benzyloxypyrimidine]

EC50 [1]: 2000 nM
AGT inactivating activity in HT29 cell-free extracts, in words [1]: considerably more active than 3b
EC50 [2]: 800 nM
SMILES: Nc1nc(N)c(Br)c(OCc2ccccc2)n1 [Compound 3f, 2,4-Diamino-6-benzyloxy-5-bromopyrimidine]

EC50 [1]: 65000 nM
EC50 [2]: 11000 nM
SMILES: CC(=O)Nc1nc(OCc2ccccc2)c2[nH]c(=O)[nH]c2n1 [Compound 4d, N^2-Acetyl-O^6-benzyl-8-oxoguanine]

EC50 [1]: 200000 nM
EC50 [2]: 110000 nM
SMILES: CN(C)c1nc(OCc2ccccc2)c2nc[nH]c2n1 [Compound 4f, O^6-Benzyl-N^2,N^2-dimethylguanine]

EC50 [1]: 400 nM
EC50 [2]: 300 nM
SMILES: Nc1nc(N)c(N)c(OCc2ccccc2)n1 [Compound 3c, 2,4,5-triamino-6-benzyloxypyrimidine]
Colony Formation per 1000 cells ([3]; inactivator 1 μM, BCNU 40 μM): 378 ± 60 per 1000 cells
Colony Formation per 1000 cells ([3]; inactivator 10 μM, BCNU 40 μM): 57 ± 7 per 1000 cells
Colony Formation per 1000 cells ([3]; inactivator 10 μM, BCNU none): 429 ± 101 per 1000 cells
enhancement of BCNU cytotoxicity, in words (HT-29 colon cancer cells; [5]): as effective as the 8-substituted O^6-bezylguanine derivatives and O^6-benzylguanine itself
Colony Formation per 1000 cells (HT-29 colon cancer cells; inactivator 1 μM, BCNU 40 μM): 487 ± 32 per 1000 cells
Colony Formation per 1000 cells (HT-29 colon cancer cells; inactivator 10 μM, BCNU 40 μM): 3 ± 1 per 1000 cells
Colony Formation per 1000 cells (HT-29 colon cancer cells; inactivator 10 μM, BCNU none): 453 ± 59 per 1000 cells
Colony Formation per 1000 cells ([4]; inactivator 10 μM, BCNU 40 μM): 12 ± 4 per 1000 cells
Colony Formation per 1000 cells ([4]; inactivator 10 μM, BCNU none): 448 ± 55 per 1000 cells

EC50 [1]: 500 nM
EC50 [2]: 80 nM
ratio of ED50 values in cell-free extracts/intact cells [2]: 6.3
SMILES: Cn1nnc2c(OCc3ccccc3)nc(N)nc21 [Compound 8a, 8-Aza-O^6-benzyl-9-methylguanine]
AGT inactivating activity in intact HT29 cells, in words [2]: significantly higher than their activity in cell-free extracts

EC50 [1]: 1900 nM
EC50 [2]: 250 nM
ratio of ED50 values in cell-free extracts/intact cells [2]: 7.2
SMILES: Cn1c(Br)nc2c(OCc3ccccc3)nc(N)nc21 [Compound 10a, O^6-Benzyl-8-bromo-9-methylguanine]
AGT inactivating activity in intact HT29 cells, in words [2]: significantly higher than their activity in cell-free extracts

EC50 [1]: 160000 nM
EC50 [2]: 60000 nM
SMILES: CNc1nc(OCc2ccccc2)c2nc[nH]c2n1 [Compound 4e, O^6-Benzyl-N^2-methylguanine]

EC50 [1]: 60000 nM
EC50 [2]: 35000 nM
SMILES: O=c1nc(OCc2ccccc2)c2[nH]cnc2[nH]1 [Compound 4a, O^6-Benzylxanthine]

EC50 [1]: 400 nM
AGT inactivating activity in HT29 cell-free extracts, in words [1]: much more active than 3a
EC50 [2]: 50 nM
AGT inactivating activity in intact HT29 cells, in words [2]: quite active in cells
SMILES: Nc1ncc([N+](=O)[O-])c(OCc2ccccc2)n1 [Compound 5a, 2-Amino-4-benzyloxy-5-nitropyrimidine]

Further lines, the molecule ahead of its results:

SMILES: Cc1nc2c(OCc3ccccc3)nc(N)nc2[nH]1 [Compound 1b, O^6-benzyl-8-methylguanine]
Colony Formation per 1000 cells ([3]; inactivator 1 μM, BCNU 40 μM): 306 ± 157 per 1000 cells
Colony Formation per 1000 cells ([3]; inactivator 10 μM, BCNU 40 μM): 50 ± 7 per 1000 cells
Colony Formation per 1000 cells ([3]; inactivator 10 μM, BCNU none): 357 ± 43 per 1000 cells
EC50 [1]: 300 nM
Colony Formation per 1000 cells (HT-29 colon cancer cells; inactivator 1 μM, BCNU 40 μM): 230 ± 51 per 1000 cells
Colony Formation per 1000 cells (HT-29 colon cancer cells; inactivator 10 μM, BCNU 40 μM): <1 per 1000 cells
Colony Formation per 1000 cells (HT-29 colon cancer cells; inactivator 10 μM, BCNU none): 513 ± 76 per 1000 cells
EC50 [2]: 100 nM
Colony Formation per 1000 cells ([4]; inactivator 10 μM, BCNU 40 μM): 2 ± 1 per 1000 cells
Colony Formation per 1000 cells ([4]; inactivator 10 μM, BCNU none): 376 ± 76 per 1000 cells

SMILES: Cn1c(C(F)(F)F)nc2c(OCc3ccccc3)nc(N)nc21 [Compound 7, O^6-Benzyl-8-trifluoromethyl-9-methylguanine]
EC50 [1]: 2500 nM
EC50 [2]: 400 nM
ratio of ED50 values in cell-free extracts/intact cells [2]: 6.3
AGT inactivating activity in intact HT29 cells, in words [2]: significantly higher than their activity in cell-free extracts
melting point: 86 to 89 °C

SMILES: Nc1nc(OCc2ccccc2)c2nc(N)[nH]c2n1 [Compound 1a, 8-Amino-O^6-benzylguanine]
Colony Formation per 1000 cells ([3]; inactivator 1 μM, BCNU 40 μM): 295 ± 45 per 1000 cells
Colony Formation per 1000 cells ([3]; inactivator 10 μM, BCNU 40 μM): 435 ± 70 per 1000 cells
Colony Formation per 1000 cells ([3]; inactivator 10 μM, BCNU none): 380 ± 36 per 1000 cells
EC50 [1]: 700 nM
enhancement of BCNU cytotoxicity, in words (HT-29 colon cancer cells; [5]): comparatively low activity
Colony Formation per 1000 cells (HT-29 colon cancer cells; inactivator 1 μM, BCNU 40 μM): 475 ± 26 per 1000 cells
Colony Formation per 1000 cells (HT-29 colon cancer cells; inactivator 10 μM, BCNU 40 μM): 430 ± 41 per 1000 cells
Colony Formation per 1000 cells (HT-29 colon cancer cells; inactivator 10 μM, BCNU none): 504 ± 30 per 1000 cells
EC50 [2]: 2000 nM
Colony Formation per 1000 cells ([4]; inactivator 10 μM, BCNU 40 μM): 95 ± 8 per 1000 cells
Colony Formation per 1000 cells ([4]; inactivator 10 μM, BCNU none): 432 ± 36 per 1000 cells

SMILES: Nc1nc(N)c([N+](=O)[O-])c(OCc2ccccc2)n1 [Compound 3e, 2,4-diamino-6-benzyloxy-5-nitropyrimidine]
Colony Formation per 1000 cells ([3]; inactivator 1 μM, BCNU 40 μM): 59 ± 6 per 1000 cells
enhancement of BCNU cytotoxicity, in words (HT-29 colon cancer cells; [5]): similarly effective at a 4-fold lower dose
Colony Formation per 1000 cells (HT-29 colon cancer cells; inactivator 1 μM, BCNU 40 μM): 45 ± 4 per 1000 cells
Colony Formation per 1000 cells (HT-29 colon cancer cells; inactivator […], BCNU 40 μM): <1 per 1000 cells
Colony Formation per 1000 cells ([4]; inactivator […], BCNU 40 μM): 2 ± 1 per 1000 cells

SMILES: Nc1nc(OCc2ccccc2)c2nc(C(F)(F)F)[nH]c2n1 [Compound 1e, O^6-Benzyl-8-trifluoromethylguanine]
EC50 [1]: 400 nM
EC50 [2]: 250 nM
ratio of ED50 values in cell-free extracts/intact cells [2]: 1.6
melting point: 214 to 216 °C (dec.)

SMILES: Nc1nc(OCc2ccccc2)c2nc(Br)[nH]c2n1 [Compound 1d, O^6-Benzyl-8-bromoguanine]
Colony Formation per 1000 cells ([3]; inactivator 1 μM, BCNU 40 μM): 267 ± 39 per 1000 cells
Colony Formation per 1000 cells ([3]; inactivator 10 μM, BCNU 40 μM): 16 ± 3 per 1000 cells
Colony Formation per 1000 cells ([3]; inactivator 10 μM, BCNU none): 493 ± 90 per 1000 cells
EC50 [1]: 80 nM
AGT inactivating activity in HT29 cell-free extracts, in words [1]: essentially as active as pyrimidines 3d and 3e
Colony Formation per 1000 cells (HT-29 colon cancer cells; inactivator 1 μM, BCNU 40 μM): 299 ± 30 per 1000 cells
Colony Formation per 1000 cells (HT-29 colon cancer cells; inactivator 10 μM, BCNU 40 μM): 1 ± 0 per 1000 cells
Colony Formation per 1000 cells (HT-29 colon cancer cells; inactivator 10 μM, BCNU none): 401 ± 22 per 1000 cells
EC50 [2]: 60 nM
ratio of ED50 values in cell-free extracts/intact cells [2]: 1.6
AGT inactivating activity in intact HT29 cells, in words [2]: somewhat less active in cells than expected
Colony Formation per 1000 cells ([4]; inactivator 10 μM, BCNU 40 μM): 3 ± 1 per 1000 cells
Colony Formation per 1000 cells ([4]; inactivator 10 μM, BCNU none): 380 ± 109 per 1000 cells
Colony Formation per 1000 cells ([4]; inactivator […], BCNU 40 μM): 4 ± 3 per 1000 cells

SMILES: Nc1nc(N)nc(OCc2ccccc2)n1 [Compound 6, 2,4-Diamino-6-benzyloxy-s-triazine]
EC50 [1]: 4000 nM
AGT inactivating activity in HT29 cell-free extracts, in words [1]: considerably more active than 3b
EC50 [2]: 1000 nM

SMILES: Nc1nc(OCc2ccccc2)c2[nH]c(=O)[nH]c2n1 [Compound 1c, O^6-Benzyl-8-oxoguanine]
Colony Formation per 1000 cells ([3]; inactivator 1 μM, BCNU 40 μM): 329 ± 43 per 1000 cells
Colony Formation per 1000 cells ([3]; inactivator 10 μM, BCNU 40 μM): 34 ± 3 per 1000 cells
Colony Formation per 1000 cells ([3]; inactivator 10 μM, BCNU none): 379 ± 34 per 1000 cells
EC50 [1]: 300 nM
Colony Formation per 1000 cells (HT-29 colon cancer cells; inactivator 1 μM, BCNU 40 μM): 221 ± 15 per 1000 cells
Colony Formation per 1000 cells (HT-29 colon cancer cells; inactivator 10 μM, BCNU 40 μM): <1 per 1000 cells
Colony Formation per 1000 cells (HT-29 colon cancer cells; inactivator 10 μM, BCNU none): 401 ± 22 per 1000 cells
EC50 [2]: 150 nM
Colony Formation per 1000 cells ([4]; inactivator 10 μM, BCNU 40 μM): 4 ± 2 per 1000 cells
Colony Formation per 1000 cells ([4]; inactivator 10 μM, BCNU none): 522 ± 78 per 1000 cells

SMILES: Nc1nc(OCc2ccccc2)c2nn[nH]c2n1 [Compound 2, 8-Aza-O^6-benzylguanine]
Colony Formation per 1000 cells ([3]; inactivator 1 μM, BCNU 40 μM): 248 ± 21 per 1000 cells
Colony Formation per 1000 cells ([3]; inactivator 10 μM, BCNU 40 μM): 28 ± 5 per 1000 cells
Colony Formation per 1000 cells ([3]; inactivator 10 μM, BCNU none): 452 ± 72 per 1000 cells
EC50 [1]: 70 nM
Colony Formation per 1000 cells (HT-29 colon cancer cells; inactivator 1 μM, BCNU 40 μM): 423 ± 42 per 1000 cells
Colony Formation per 1000 cells (HT-29 colon cancer cells; inactivator 10 μM, BCNU 40 μM): 2 ± 1 per 1000 cells
Colony Formation per 1000 cells (HT-29 colon cancer cells; inactivator 10 μM, BCNU none): 537 ± 48 per 1000 cells
EC50 [2]: 60 nM
Colony Formation per 1000 cells ([4]; inactivator 10 μM, BCNU 40 μM): 2 ± 1 per 1000 cells
Colony Formation per 1000 cells ([4]; inactivator 10 μM, BCNU none): 483 ± 27 per 1000 cells

SMILES: O=NN(CCCl)C(=O)NCCCl [BCNU, 1,3-bis(2-chloroethyl)-1-nitrosourea, reference compound]
Colony Formation per 1000 cells ([3]; no inactivator, BCNU 40 μM): 394 ± 76 per 1000 cells
Colony Formation per 1000 cells (HT-29 colon cancer cells; no inactivator, BCNU 40 μM): 442 ± 34 per 1000 cells
effect of agent alone on cell colony number, in words (HT-29 colon cancer cells; statement covers HT29, DU-145 and MCF-71 cells (Tables 3-5)): no significant effect on cell colony number
Colony Formation per 1000 cells ([4]; no inactivator, BCNU 40 μM): 364 ± 60 per 1000 cells
